# Test results reported in ChEMBL document CHEMBL1201862, “PubChem BioAssay data set” (2004).
# Active and inactive are the calls of the source.
# Legend:
# [1] = target: T1, Voltage-gated N-type calcium channel alpha-1B subunit/Amyloid beta A4 precursor protein-binding family A member 1 (Homo sapiens, UniProt Q00975+Q02410); assay type: protein assay
# [2] = target: T1, Voltage-gated N-type calcium channel alpha-1B subunit/Amyloid beta A4 precursor protein-binding family A member 1; assay type: protein assay; remark: listed apart in the source
# [3] = target: T2, Apoptotic protease-activating factor 1 (Homo sapiens, UniProt O14727); experiment: activation of Apaf-1 mediated apoptosis – fluorescent, uHTS hits, dose response (AID 588554); assay type: functional
# T2 sequence (O14727 whole entry): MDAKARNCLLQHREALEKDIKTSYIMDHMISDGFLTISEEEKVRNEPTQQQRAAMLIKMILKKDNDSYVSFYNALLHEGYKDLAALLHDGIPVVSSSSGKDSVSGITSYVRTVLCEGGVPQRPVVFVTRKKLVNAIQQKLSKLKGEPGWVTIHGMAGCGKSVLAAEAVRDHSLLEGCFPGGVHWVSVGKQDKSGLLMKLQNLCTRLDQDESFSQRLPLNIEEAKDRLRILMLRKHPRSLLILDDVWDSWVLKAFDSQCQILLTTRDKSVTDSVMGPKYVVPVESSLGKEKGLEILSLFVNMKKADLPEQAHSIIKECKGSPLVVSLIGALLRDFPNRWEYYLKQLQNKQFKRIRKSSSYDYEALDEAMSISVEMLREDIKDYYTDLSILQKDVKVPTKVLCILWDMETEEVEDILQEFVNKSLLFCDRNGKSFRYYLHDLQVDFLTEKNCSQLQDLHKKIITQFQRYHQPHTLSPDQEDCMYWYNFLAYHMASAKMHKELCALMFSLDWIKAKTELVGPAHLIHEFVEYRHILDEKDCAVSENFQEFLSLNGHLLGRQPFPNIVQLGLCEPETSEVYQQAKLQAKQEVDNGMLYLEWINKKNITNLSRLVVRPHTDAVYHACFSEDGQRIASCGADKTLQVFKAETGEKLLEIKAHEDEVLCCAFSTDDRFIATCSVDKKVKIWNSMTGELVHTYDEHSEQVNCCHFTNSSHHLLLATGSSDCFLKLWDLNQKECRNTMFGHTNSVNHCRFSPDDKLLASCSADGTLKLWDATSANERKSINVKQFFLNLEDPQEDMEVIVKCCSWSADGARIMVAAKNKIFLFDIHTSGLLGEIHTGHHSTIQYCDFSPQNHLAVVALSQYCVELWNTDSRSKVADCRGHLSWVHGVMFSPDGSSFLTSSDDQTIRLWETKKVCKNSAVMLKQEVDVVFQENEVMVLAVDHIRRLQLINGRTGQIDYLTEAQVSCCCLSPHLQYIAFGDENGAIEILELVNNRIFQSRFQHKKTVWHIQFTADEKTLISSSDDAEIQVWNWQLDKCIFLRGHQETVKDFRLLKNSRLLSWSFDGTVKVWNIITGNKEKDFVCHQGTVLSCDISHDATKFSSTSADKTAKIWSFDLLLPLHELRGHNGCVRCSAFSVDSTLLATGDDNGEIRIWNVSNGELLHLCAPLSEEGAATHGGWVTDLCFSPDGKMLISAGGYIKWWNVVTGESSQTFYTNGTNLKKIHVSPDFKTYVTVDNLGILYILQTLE
# [4] = target: T3, Small ubiquitin-related modifier 1 (Homo sapiens, UniProt P63165); experiment: SUMO1 protein interaction blockers, potency – biochemical, fluorescence polarization, uHTS hits, dose response (AID 624382); assay type: functional; details: read-out: IC50_Mean
# [5] = target: T3, Small ubiquitin-related modifier 1; experiment: SUMO1 protein-protein binding blockers, potency – biochemical, FRET, dose response (AID 624383); assay type: functional; details: read-out: IC50_Mean
# ORF 73 = target: T4, ORF 73 (Human herpesvirus 8, UniProt O40947); experiment: KSHV LANA DNA-binding disruption – biochemical, fluorescence polarization, cherry-picked samples, dose response (AID 504725); parameters: species or system Human gammaherpesvirus 8;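 also: fluorescence polarization of a labeled DNA duplex reporting LANA DNA binding; potency is for inhibitors that block LANA binding to the DNA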
# T4 sequence (O40947 whole entry): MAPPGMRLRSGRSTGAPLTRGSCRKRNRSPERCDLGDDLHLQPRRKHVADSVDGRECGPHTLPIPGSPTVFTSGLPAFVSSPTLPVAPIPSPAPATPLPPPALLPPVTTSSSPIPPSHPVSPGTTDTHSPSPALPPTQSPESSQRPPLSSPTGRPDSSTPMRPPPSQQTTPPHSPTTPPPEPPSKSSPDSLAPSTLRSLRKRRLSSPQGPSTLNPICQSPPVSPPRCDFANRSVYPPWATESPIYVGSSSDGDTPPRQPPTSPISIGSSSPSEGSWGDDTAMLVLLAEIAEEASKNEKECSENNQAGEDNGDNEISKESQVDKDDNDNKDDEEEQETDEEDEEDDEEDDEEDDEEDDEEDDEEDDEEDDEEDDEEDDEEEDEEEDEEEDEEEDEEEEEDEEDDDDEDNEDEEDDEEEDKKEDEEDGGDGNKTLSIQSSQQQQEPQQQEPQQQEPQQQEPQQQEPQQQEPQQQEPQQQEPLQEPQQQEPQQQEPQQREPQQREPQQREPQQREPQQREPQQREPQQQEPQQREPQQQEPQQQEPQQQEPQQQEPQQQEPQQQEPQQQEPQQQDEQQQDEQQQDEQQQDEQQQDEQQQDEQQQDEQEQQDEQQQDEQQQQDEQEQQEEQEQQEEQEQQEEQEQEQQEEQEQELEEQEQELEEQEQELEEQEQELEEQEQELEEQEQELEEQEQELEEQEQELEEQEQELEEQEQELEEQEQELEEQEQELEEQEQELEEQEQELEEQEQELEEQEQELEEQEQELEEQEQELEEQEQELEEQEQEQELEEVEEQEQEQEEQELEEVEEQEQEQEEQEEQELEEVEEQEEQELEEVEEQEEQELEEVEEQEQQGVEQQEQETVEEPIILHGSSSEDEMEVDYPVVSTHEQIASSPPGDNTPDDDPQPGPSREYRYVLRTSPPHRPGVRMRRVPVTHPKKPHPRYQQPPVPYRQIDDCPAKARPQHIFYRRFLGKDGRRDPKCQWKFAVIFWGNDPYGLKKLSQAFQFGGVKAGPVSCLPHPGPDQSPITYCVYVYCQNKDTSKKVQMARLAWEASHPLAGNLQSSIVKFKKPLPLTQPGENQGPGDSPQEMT
# Keap1/Nrf2 = Keap1/Nrf2 (Homo sapiens, UniProt Q14145); experiment: disruptors of Keap1 binding to Nrf2 peptide – biochemical, fluorescence polarization, cherry-picked samples, dose response (AID 588683)
# Cytochrome P450 1A2 = target: T5, Cytochrome P450 1A2 (Homo sapiens, UniProt P05177);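 also: PubChem cytochrome P450 panel assay, CYP1A2 panel member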
# T5 sequence (P05177 whole entry): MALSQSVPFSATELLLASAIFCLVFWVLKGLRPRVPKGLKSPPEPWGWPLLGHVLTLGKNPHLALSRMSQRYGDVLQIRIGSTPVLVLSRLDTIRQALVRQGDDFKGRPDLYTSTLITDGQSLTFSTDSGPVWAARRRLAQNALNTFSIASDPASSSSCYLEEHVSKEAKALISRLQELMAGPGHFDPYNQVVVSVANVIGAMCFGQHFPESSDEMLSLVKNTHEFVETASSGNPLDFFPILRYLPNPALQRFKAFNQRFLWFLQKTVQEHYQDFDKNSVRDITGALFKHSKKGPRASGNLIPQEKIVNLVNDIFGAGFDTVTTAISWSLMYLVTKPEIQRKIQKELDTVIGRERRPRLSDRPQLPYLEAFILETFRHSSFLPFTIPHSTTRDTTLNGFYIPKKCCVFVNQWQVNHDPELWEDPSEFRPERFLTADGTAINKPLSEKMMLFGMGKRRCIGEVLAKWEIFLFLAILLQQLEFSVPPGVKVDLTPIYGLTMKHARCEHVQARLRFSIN
# Cytochrome P450 2D6 = Cytochrome P450 2D6 (Homo sapiens, UniProt P10635);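 also: CYP2D6 member of a cytochrome P450 panel assay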
# Sequence of Cytochrome P450 2D6 (P10635 whole entry): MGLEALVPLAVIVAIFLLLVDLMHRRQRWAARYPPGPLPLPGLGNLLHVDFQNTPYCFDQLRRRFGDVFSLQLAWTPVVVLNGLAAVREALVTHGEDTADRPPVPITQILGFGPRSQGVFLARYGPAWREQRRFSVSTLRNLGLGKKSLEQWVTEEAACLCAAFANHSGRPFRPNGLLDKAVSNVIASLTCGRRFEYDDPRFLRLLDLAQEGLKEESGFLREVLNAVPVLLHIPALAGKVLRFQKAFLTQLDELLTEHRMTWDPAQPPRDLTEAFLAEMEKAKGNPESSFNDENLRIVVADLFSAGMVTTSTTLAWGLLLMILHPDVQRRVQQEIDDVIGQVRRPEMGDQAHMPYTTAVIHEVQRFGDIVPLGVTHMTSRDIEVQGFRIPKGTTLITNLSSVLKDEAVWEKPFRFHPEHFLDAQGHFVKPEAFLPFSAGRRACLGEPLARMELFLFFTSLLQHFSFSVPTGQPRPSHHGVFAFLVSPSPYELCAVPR
# T1 sequence (Q00975 whole entry): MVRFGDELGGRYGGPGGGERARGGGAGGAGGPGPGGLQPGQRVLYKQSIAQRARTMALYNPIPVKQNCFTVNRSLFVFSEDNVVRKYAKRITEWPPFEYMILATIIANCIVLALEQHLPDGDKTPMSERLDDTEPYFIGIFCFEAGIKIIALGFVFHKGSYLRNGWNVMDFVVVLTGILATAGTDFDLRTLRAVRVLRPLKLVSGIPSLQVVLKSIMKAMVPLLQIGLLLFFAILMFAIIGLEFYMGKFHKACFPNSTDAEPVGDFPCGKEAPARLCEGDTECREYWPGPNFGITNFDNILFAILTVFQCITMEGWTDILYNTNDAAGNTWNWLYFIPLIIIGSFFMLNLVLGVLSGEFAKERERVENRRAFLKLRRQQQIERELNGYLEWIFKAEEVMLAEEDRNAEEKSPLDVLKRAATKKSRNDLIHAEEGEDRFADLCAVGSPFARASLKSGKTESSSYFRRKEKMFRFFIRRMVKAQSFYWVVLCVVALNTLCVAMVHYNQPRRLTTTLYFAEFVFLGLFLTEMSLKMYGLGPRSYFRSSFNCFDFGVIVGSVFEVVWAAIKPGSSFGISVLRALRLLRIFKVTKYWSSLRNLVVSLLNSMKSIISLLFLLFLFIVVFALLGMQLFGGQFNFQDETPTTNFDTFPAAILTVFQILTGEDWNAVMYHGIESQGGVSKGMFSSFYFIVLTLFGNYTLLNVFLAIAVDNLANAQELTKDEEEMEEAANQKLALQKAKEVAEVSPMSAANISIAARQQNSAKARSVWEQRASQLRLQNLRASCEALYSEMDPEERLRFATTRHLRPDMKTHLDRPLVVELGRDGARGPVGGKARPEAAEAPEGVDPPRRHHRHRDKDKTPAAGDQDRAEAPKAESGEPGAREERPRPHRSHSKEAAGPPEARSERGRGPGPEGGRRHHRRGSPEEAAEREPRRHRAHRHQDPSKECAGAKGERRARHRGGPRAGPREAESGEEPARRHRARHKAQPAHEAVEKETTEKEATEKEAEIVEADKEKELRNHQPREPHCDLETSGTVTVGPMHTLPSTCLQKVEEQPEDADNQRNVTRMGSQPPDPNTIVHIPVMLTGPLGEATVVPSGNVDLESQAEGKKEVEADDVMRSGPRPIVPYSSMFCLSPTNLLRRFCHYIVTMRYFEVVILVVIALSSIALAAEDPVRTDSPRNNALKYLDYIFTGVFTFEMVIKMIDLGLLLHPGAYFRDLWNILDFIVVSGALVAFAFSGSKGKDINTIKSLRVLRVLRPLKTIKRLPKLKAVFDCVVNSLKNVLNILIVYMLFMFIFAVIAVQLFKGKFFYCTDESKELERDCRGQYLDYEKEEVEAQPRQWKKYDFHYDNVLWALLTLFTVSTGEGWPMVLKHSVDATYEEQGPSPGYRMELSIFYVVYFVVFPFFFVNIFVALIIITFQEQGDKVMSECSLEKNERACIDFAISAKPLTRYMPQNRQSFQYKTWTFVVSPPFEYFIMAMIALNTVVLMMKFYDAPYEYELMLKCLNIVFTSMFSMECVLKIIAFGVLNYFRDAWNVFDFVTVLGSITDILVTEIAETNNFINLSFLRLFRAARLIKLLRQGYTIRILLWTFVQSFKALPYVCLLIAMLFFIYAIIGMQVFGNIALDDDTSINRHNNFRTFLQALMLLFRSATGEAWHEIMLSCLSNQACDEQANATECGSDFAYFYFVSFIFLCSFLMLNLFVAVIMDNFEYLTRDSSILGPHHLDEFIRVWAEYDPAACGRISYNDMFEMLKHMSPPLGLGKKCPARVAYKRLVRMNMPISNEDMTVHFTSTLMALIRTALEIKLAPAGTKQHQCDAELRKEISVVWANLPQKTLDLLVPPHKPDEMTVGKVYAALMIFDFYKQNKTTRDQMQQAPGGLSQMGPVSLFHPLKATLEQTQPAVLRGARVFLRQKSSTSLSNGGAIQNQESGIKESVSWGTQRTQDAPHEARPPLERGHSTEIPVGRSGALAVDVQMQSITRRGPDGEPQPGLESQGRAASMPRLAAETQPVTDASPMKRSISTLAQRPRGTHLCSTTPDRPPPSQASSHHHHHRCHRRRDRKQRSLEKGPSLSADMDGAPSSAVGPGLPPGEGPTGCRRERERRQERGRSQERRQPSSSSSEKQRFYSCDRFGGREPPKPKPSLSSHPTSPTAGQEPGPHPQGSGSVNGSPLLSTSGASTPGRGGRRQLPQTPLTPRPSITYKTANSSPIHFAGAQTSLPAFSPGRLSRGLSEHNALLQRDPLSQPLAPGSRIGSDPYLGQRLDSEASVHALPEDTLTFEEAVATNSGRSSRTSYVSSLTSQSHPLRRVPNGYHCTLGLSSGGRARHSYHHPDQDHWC
# T1 sequence (Q02410 whole entry): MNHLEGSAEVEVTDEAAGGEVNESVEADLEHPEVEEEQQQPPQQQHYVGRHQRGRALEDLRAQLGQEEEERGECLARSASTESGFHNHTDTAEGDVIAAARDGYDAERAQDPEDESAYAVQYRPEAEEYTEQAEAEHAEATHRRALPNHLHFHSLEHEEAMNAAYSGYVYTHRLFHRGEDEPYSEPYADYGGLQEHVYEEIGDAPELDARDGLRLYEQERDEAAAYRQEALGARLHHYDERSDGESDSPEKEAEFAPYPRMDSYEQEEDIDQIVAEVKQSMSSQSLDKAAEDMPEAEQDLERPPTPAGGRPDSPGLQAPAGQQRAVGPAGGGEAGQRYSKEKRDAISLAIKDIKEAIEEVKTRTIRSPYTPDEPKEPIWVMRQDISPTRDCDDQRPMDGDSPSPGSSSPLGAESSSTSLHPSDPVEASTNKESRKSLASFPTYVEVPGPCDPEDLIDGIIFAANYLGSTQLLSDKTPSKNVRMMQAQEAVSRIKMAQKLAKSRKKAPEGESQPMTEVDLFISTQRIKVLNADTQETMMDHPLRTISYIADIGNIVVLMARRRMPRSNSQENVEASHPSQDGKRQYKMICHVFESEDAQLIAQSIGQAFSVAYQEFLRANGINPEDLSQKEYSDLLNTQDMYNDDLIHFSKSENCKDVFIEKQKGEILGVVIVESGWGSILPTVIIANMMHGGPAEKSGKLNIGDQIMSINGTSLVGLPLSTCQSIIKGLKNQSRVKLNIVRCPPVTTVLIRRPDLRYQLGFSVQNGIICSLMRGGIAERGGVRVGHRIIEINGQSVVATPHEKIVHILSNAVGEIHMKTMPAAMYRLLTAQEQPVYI
# T3 sequence (P63165 whole entry): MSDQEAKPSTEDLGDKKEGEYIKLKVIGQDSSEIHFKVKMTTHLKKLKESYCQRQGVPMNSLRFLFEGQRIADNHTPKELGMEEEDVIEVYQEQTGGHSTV
# Sequence of Keap1/Nrf2 (Q16236 whole entry): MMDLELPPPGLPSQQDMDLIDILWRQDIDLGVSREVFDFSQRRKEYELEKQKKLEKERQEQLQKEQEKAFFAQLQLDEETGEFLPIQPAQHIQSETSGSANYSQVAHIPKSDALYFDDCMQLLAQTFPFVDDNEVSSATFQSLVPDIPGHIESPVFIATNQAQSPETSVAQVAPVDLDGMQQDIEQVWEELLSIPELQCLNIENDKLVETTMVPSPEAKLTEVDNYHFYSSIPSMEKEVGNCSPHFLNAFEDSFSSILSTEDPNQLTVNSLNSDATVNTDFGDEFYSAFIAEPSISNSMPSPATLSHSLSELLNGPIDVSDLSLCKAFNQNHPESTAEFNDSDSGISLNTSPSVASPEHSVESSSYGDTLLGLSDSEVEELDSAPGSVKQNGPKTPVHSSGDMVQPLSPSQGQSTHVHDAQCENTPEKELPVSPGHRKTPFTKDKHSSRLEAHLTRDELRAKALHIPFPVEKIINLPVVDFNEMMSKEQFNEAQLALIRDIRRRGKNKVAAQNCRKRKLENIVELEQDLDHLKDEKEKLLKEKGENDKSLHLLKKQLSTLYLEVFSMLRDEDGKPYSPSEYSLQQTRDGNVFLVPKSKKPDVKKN
# Sequence of Keap1/Nrf2 (Q14145 whole entry): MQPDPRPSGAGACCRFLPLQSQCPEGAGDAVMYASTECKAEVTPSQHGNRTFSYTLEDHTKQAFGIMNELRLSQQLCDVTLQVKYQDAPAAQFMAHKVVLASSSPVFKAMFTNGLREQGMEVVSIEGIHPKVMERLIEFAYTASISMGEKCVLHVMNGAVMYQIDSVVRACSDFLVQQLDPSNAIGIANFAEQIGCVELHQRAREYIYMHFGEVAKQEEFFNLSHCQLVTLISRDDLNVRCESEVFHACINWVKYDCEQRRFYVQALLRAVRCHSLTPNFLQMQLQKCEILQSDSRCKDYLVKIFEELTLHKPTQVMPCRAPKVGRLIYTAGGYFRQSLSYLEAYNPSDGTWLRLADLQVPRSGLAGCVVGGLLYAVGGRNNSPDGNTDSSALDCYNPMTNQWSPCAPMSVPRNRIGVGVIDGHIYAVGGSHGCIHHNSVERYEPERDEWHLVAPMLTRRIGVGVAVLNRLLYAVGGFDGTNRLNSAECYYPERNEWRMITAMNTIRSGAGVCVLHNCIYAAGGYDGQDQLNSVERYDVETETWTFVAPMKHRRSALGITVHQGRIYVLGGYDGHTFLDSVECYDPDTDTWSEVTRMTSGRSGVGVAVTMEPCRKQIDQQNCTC
structure (smiles),measurement,setting,value
N#Cc1nc(-c2ccc(OCc3ccc(Cl)cc3)cc2)oc1N1CCC(C(N)=O)CC1,IC50,[1],3.78 µM (active)
same,IC50,[2],47.3 µM (active)
same,EC50,[3],7.04 µM (active)
same,IC50,[4],> 66.6 µM (inactive)
same,IC50,[5],8.79 µM (active)
Fc1ccc(C2=CC(c3ccc(Br)o3)n3ncnc3N2)cc1 (centres undefined),AC50,ORF 73,10.8 µM (active)
same,AC50,Keap1/Nrf2,24 µM (active)
Cn1c(=O)c2nc(SCc3ccccn3)[nH]c2n(C)c1=S,AC50,Cytochrome P450 1A2,0.0126 µM (inconclusive)
same,AC50,Cytochrome P450 2D6,inconclusive
